From the supplement of paper PMC11368000

Experiments:
Details in all cases: exposure time: 90 min
1516 [1] = donor line of iPSC-derived cardiomyocytes; test: POD (EC05) for increase in beat frequency (positive chronotrope) vs vehicle; higher = less potent (higher point of departure)
Method: (§1)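 Human iPSC-derived cardiomyocytes from 16 donors were exposed for 90 min at 37 °C to each PFAS at 0.1, 1, 10 and 100 µM in 0.5% DMSO, 384-well plates. Kinetic Ca2+ flux (FLIPR) and Hoechst nuclei counts were normalised to vehicle wells and fitted with a hierarchical Bayesian Hill model to give donor-specific PODs: EC05 for beat-rate increase or decrease and for decay-to-rise ratio increase (QT proxy), EC95 for peak-frequency loss (asystole), EC10 for total cell number loss. 0.03 µM is the lower bound.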

20032 [2] = donor line of iPSC-derived cardiomyocytes; test: as above
Method: as §1

1309 [3] = donor line of iPSC-derived cardiomyocytes; test: as above
Method: as §1

1083 = donor line of iPSC-derived cardiomyocytes; test: as above
Method: as §1

1531 = donor line of iPSC-derived cardiomyocytes; test: as above
Method: as §1

20084 [4] = donor line of iPSC-derived cardiomyocytes; test: as above
Method: as §1

1368 [5] = donor line of iPSC-derived cardiomyocytes; test: as above
Method: as §1

1118 [6] = donor line of iPSC-derived cardiomyocytes; test: as above
Method: as §1

11235 = donor line of iPSC-derived cardiomyocytes; test: POD (EC95) for loss of peak frequency (asystole) vs vehicle; higher = less potent (higher point of departure)
Method in brief: (§2)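 Cardiomyocytes derived from human iPSCs of 16 donors were grown 14 days in gelatin-coated 384-well plates, loaded 2 h with a fluorescent Ca2+ dye, then exposed for 90 min at 37 °C to final concentrations of 0.1, 1, 10 and 100 µM in 0.5% DMSO. A FLIPR Tetra recorded Ca2+ flux at 8 frames/s for 100 s before and after exposure. Points of departure for each donor were derived by hierarchical Bayesian Hill fitting of vehicle-normalised beat frequency, decay-to-rise ratio or peak frequency. The thresholds applied were a 5% change, or a 95% loss for peak frequency.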

1516 [7] = test: as above
Method in brief: as §2

1565 = donor line of iPSC-derived cardiomyocytes; test: as above
Method in brief: as §2

1434 = donor line of iPSC-derived cardiomyocytes; test: as above
Method in brief: as §2

1535 = donor line of iPSC-derived cardiomyocytes; test: as above
Method in brief: as §2

20032 [8] = test: as above
Method in brief: as §2

1392 = donor line of iPSC-derived cardiomyocytes; test: as above
Method in brief: as §2

1309 [9] = test: as above
Method in brief: as §2

20084 [10] = test: as above
Method in brief: as §2

1368 [11] = test: as above
Method in brief: as §2

30145 = donor line of iPSC-derived cardiomyocytes; test: as above
Method in brief: as §2

1118 [12] = test: as above
Method in brief: as §2

Row | Structure (SMILES) | POD vs vehicle 1516 [1] [µM] | POD vs vehicle 20032 [2] [µM] | POD vs vehicle 1309 [3] [µM] | POD vs vehicle 1083 [µM] | POD vs vehicle 1531 [µM] | POD vs vehicle 20084 [4] [µM] | POD vs vehicle 1368 [5] [µM] | POD vs vehicle 1118 [6] [µM] | POD vs vehicle 11235 [µM] | POD vs vehicle 1516 [7] [µM] | POD vs vehicle 1565 [µM] | POD vs vehicle 1434 [µM] | POD vs vehicle 1535 [µM] | POD vs vehicle 20032 [8] [µM] | POD vs vehicle 1392 [µM] | POD vs vehicle 1309 [9] [µM] | POD vs vehicle 20084 [10] [µM] | POD vs vehicle 1368 [11] [µM] | POD vs vehicle 30145 [µM] | POD vs vehicle 1118 [12] [µM]
1 | OCC(F)(F)C(F)(F)C(F)(F)C(F)(F)C(F)(F)C(F)(F)F [6:1 Fluorotelomer alcohol] | > 100 | > 100 | > 100 | > 100 | > 100 | > 100 | > 100 | > 100 | 70.2 | > 100 | > 100 | 75.4 | > 100 | > 100 | > 100 | > 100 | > 100 | > 100 | > 100 | 1.75
2 | OCC(F)(F)C(F)(F)C(F)(F)F [Heptafluorobutanol] | > 100 | > 100 | > 100 | > 100 | > 100 | > 100 | > 100 | > 100 | > 100 | > 100 | > 100 | > 100 | > 100 | > 100 | > 100 | > 100 | > 100 | > 100 | > 100 | > 100
3 | O=C(O)C(F)(F)C(F)(F)C(F)(F)C(F)(F)C(F)(F)C(F)(F)C(F)(F)C(F)(F)F [Perfluorononanoic_acid] | > 100 | > 100 | > 100 | > 100 | > 100 | > 100 | > 100 | > 100 | 31.5 | > 100 | > 100 | > 100 | > 100 | > 100 | > 100 | > 100 | > 100 | > 100 | > 100 | 99.4
4 | O=C(O)C(F)(F)C(F)(F)C(F)(F)OC(F)(F)F [Perfluoro(4-methoxybutanoic)_acid] | > 100 | > 100 | > 100 | > 100 | > 100 | > 100 | > 100 | > 100 | > 100 | > 100 | > 100 | > 100 | > 100 | > 100 | > 100 | > 100 | > 100 | > 100 | > 100 | > 100
5 | OCC(F)(F)C(F)(F)C(F)(F)C(F)(F)C(F)(F)C(F)F [Dodecafluoroheptanol] | > 100 | > 100 | > 100 | > 100 | > 100 | > 100 | > 100 | > 100 | 48.1 | 48.2 | 50.6 | 45.8 | 46.3 | 47.7 | 45 | 50.3 | 48.6 | 35.7 | 47.9 | 7.54
6 | O=S(=O)(O)CCC(F)(F)C(F)(F)C(F)(F)C(F)(F)C(F)(F)C(F)(F)C(F)(F)C(F)(F)F [8:2 Fluorotelomer sulfonic acid] | > 100 | > 100 | > 100 | 27.8 | > 100 | > 100 | 77.4 | > 100 | > 100 | > 100 | > 100 | > 100 | > 100 | > 100 | > 100 | > 100 | > 100 | > 100 | 89.3 | > 100
7 | OCCC(F)(F)C(F)(F)C(F)(F)C(F)(F)C(F)(F)C(F)(F)F [6:2 Fluorotelomer alcohol] | > 100 | > 100 | > 100 | > 100 | > 100 | > 100 | > 100 | > 100 | > 100 | > 100 | > 100 | > 100 | > 100 | > 100 | > 100 | > 100 | > 100 | > 100 | > 100 | > 100
8 | O=C(O)C(F)(F)C(F)(F)OC(F)(F)F [Perfluoro-3-methoxypropanoic_acid] | > 100 | > 100 | > 100 | > 100 | > 100 | > 100 | > 100 | > 100 | > 100 | > 100 | > 100 | > 100 | > 100 | > 100 | > 100 | > 100 | > 100 | > 100 | > 100 | > 100
9 | COC(=O)C(F)(F)C(F)(F)OC(F)(C(F)(F)F)C(F)(F)OC(F)=C(F)F (stereo not given) [Methyl_perfluoro(3-(1-ethenyloxypropan-2-yloxy)propanoate)] | > 100 | > 100 | > 100 | > 100 | > 100 | > 100 | > 100 | > 100 | > 100 | > 100 | > 100 | > 100 | > 100 | > 100 | > 100 | > 100 | > 100 | > 100 | > 100 | > 100
10 | O=S(=O)(O)CCC(F)(F)C(F)(F)C(F)(F)C(F)(F)F [4:2 Fluorotelomer sulfonic acid] | > 100 | > 100 | > 100 | > 100 | > 100 | > 100 | > 100 | > 100 | > 100 | > 100 | > 100 | > 100 | > 100 | > 100 | > 100 | > 100 | > 100 | > 100 | > 100 | > 100
11 | O=C(O)CCC(F)(F)C(F)(F)C(F)(F)C(F)(F)C(F)(F)C(F)(F)C(F)(F)F [3-Perfluoroheptylpropanoic_acid] | > 100 | > 100 | > 100 | > 100 | > 100 | > 100 | > 100 | > 100 | 84.8 | > 100 | > 100 | 90.9 | > 100 | > 100 | > 100 | > 100 | > 100 | > 100 | > 100 | 59.8
12 | OCCC(F)(F)C(F)(F)C(F)(F)C(F)(F)F [4:2 Fluorotelomer alcohol] | > 100 | > 100 | > 100 | > 100 | > 100 | > 100 | > 100 | > 100 | > 100 | > 100 | > 100 | > 100 | > 100 | > 100 | > 100 | > 100 | > 100 | > 100 | > 100 | 89.1
13 | N=C(N)C(F)(F)C(F)(F)C(F)(F)C(F)(F)C(F)(F)C(F)(F)C(F)(F)F [Perfluorooctanamidine] | > 100 | > 100 | > 100 | > 100 | > 100 | > 100 | > 100 | > 100 | > 100 | > 100 | > 100 | > 100 | > 100 | > 100 | > 100 | > 100 | > 100 | > 100 | > 100 | 25.6
14 | OCC(F)(F)C(F)(F)C(F)(F)CO [Hexafluoroamylene_glycol] | > 100 | > 100 | > 100 | > 100 | > 100 | > 100 | > 100 | > 100 | > 100 | > 100 | > 100 | > 100 | > 100 | > 100 | > 100 | > 100 | > 100 | > 100 | > 100 | > 100
15 | O=C(O)C(F)(F)C(F)(F)C(F)(F)OC(F)(C(F)(F)F)C(F)(F)F [Perfluoro-4-isopropoxybutanoic_acid] | > 100 | > 100 | > 100 | > 100 | > 100 | > 100 | > 100 | > 100 | > 100 | > 100 | > 100 | > 100 | > 100 | > 100 | > 100 | > 100 | > 100 | > 100 | > 100 | > 100
16 | O=S(=O)(O)C(F)(F)C(F)(F)C(F)(F)C(F)(F)C(F)(F)C(F)(F)C(F)(F)C(F)(F)F [Perfluorooctanesulfonic_acid] | > 100 | > 100 | > 100 | > 100 | > 100 | > 100 | > 100 | > 100 | 12.5 | > 100 | > 100 | > 100 | > 100 | > 100 | > 100 | > 100 | > 100 | > 100 | > 100 | > 100
